In general, IC50 refers to the concentration needed to halve the response being measured. The inhibition is how much of the control response was suppressed. Broadly, the Ki is the equilibrium dissociation constant of an inhibitor or competing ligand from its target.

Results on eleven compounds are retold here after publication PMC7827648 (Molecules, 2021).

Data set [1] has as its target T1, human butyrylcholinesterase (BChE) (Homo sapiens, UniProt P06276).
T1 construct: BChE from human serum (50 U/mg); from tissue; host or cells: human serum
The data set can be described thus: BChE inhibition, Ellman's method. The data set is classed as biochemical. The settings on record: at 10 μM, mean ± SD (n = 3); n.i. = no inhibition. A general note: Ellman's reagent forms a yellow product with free thiols.
Procedure: (§3) The ChE inhibition assay was carried out using the Ellman’s spectrophotometric method [23], as applied to the 96-well plate technique [24] on a Tecan Infinite M1000 Pro instrument (Cernusco s.N., Italy).

Data set [2] concerns RD (rhabdomyosarcoma) cells. The data set can be described thus: Cytotoxicity, MTT assay, RD cells. The data set is classed as cell-based. The settings on record: Homo sapiens, read-out: IC50, 50% inhibition of the cell population growth, 72 h, mean ± SD. As to the method:
(§1) The cytotoxicity of the newly synthesized Schiff bases was evaluated in vitro in a panel of cultured tumor cells, assessing cell viability at scalar concentrations of the test compounds (≤500 μM) by MTT (i.e., 3-(4,5-dimethylthiazol-2-yl)-2,5-diphenyltetrazolium bromide) and Alamar Blue assays, using doxorubicin as the positive controls. Most of the compounds were tested against RD (rhabdomyosarcoma), HCT116 (intestinal carcinoma), HeLa (adenocarcinoma of the cervix uterus) and A549 (lung adenocarcinoma) cell lines, whereas five representative compounds of the subsets were tested also against K562 (chronic myelogenous leukemia) tumor cells.
(§2) The experiments were carried out in triplicate.
Background: Tetrazolium assays rely on reduction of a dye to a coloured formazan, in cell work by metabolically active cells.

In data set [3] the test system is HCT116 (intestinal carcinoma) cells. The data set can be described thus: Cytotoxicity, MTT assay, HCT116 cells. The data set is classed as cell-based. To be noted: Homo sapiens, HCT-116, read-out: IC50, 50% inhibition of the cell population growth, 72 h, mean ± SD. As to the method:
as §1, §2

Data set [4] deals with human acetylcholinesterase (AChE) (Homo sapiens, UniProt P22303). Put plainly: biochemical. To be noted: for inhibition at 10 µM: mean ± SD (n = 3), read-out: % inhibition hAChE; for IC50: human recombinant AChE, pH 8.0, mean ± SD (n = 3), read-out: IC50 hAChE.
Procedure: as §3
Data set [5] has as its target T2, β-amyloid (Aβ)1–40 self-aggregation (Homo sapiens, UniProt P05067).
T2 construct: self-aggregation of Aβ peptides 1–40 (Aβ40)
The data set can be described thus: Inhibition of self-induced Aβ40 aggregation, thioflavin T fluorescence. To be noted: Aβ40 30 μM, 2% HFIP, ThT, mean ± SD (n = 3); for IC50: PBS pH 7.4, 2 h. The data set is classed as biochemical. As to the method:
Molecules able to inhibit simultaneously AChE and β-amyloid (Aβ) aggregation/neurotoxicity may have potential as drugs for the treatment of AD [14]. Herein, the new DHPPIQ derivatives were evaluated for the inhibitory effects on the self-aggregation of Aβ peptides 1–40 (Aβ40), through a test based on the measurement of thioflavin T (ThT) fluorescence. Quercetin, which is a strong inhibitor of in vitro Aβ self-aggregation, was used as a positive control.
Each compound was initially tested at a 100-μM concentration. […] […].
According to an already reported 96-well plate procedure, the test compounds at 100 μM were incubated with Aβ40 (30 μM) and 2% HFIP (1,1,1,3,3,3-hexafluoro-2-propanol), used as aggregation enhancer in PBS pH 7.4 for 2 h at room temperature. After the addition of ThT, the fluorescence was read at the 440/485 nm excitation/emission wavelength. Experiments were performed in triplicate, and the % inhibition values calculated as mean ± SD.

The subject of data set [6] is HeLa (adenocarcinoma of the cervix uterus) cells. The data set can be described thus: Cytotoxicity, MTT assay, HeLa cells. The data set is classed as cell-based. The settings on record: Homo sapiens, read-out: IC50, 50% inhibition of the cell population growth, 72 h, mean ± SD. As to the method:
as §1, §2

Data set [7] deals with K562 (chronic myelogenous leukemia) cells. Put plainly: Cytotoxicity, Alamar Blue (resazurin) assay, K562 cells. The data set is classed as cell-based. To be noted: Homo sapiens, read-out: IC50, 50% inhibition of the cell population growth, 72 h, mean ± SD. The protocol:
as §1, §2
Background: The colour change of resazurin is a common sign of viable cells or microbes.

For data set [8], the system named is A549 (lung adenocarcinoma) cells. The data set can be described thus: Cytotoxicity, MTT assay, A549 cells. The data set is classed as cell-based. The settings on record: Homo sapiens, read-out: IC50, 50% inhibition of the cell population growth, 72 h, mean ± SD. The protocol:
as §1, §2

The nature of data set [9]: in vitro. To be noted: human.

Chain of human acetylcholinesterase (AChE) (P22303 32-614): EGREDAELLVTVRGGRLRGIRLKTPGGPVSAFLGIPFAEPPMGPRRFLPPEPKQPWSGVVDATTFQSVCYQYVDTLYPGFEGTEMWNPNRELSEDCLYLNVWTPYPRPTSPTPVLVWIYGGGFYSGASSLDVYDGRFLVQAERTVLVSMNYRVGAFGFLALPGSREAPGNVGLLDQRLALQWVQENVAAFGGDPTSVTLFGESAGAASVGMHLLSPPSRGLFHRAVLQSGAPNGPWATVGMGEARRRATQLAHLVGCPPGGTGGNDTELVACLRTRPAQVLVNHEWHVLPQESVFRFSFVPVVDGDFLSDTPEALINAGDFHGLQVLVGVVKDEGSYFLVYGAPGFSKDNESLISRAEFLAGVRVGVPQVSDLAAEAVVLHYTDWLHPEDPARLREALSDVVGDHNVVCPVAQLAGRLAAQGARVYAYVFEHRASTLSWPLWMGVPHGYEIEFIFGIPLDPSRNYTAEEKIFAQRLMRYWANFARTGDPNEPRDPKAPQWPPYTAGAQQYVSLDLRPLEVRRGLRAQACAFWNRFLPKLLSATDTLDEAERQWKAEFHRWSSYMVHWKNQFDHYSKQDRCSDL
T1 sequence (P06276 29-602): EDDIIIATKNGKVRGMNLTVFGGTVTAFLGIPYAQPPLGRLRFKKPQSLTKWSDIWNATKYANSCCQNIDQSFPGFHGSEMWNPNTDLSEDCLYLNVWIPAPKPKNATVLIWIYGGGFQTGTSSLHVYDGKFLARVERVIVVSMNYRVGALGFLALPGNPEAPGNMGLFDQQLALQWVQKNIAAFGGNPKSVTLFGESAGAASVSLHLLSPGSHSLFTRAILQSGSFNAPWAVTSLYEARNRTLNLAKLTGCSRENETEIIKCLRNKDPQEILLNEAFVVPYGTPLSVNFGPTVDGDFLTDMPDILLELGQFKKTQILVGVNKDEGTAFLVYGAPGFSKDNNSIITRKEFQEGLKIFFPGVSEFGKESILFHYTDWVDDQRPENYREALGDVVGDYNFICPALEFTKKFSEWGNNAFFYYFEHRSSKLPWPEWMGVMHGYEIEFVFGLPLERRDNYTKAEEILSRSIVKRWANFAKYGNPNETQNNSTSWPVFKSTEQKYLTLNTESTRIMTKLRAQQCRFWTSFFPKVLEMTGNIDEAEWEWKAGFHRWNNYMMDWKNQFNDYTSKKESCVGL
T2 sequence (P05067 672-711 limits assumed): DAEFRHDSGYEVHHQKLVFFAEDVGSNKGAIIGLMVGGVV

For the compound `CCOc1ccc(-c2c(/C=N/CC/N=C/c3cn4c(c3-c3ccc(OCC)c(OCC)c3)-c3cc(OCC)c(OCC)cc3CC4)cn3c2-c2cc(OCC)c(OCC)cc2CC3)cc1OCC` [Compound 19, (1E,1’E)-N,N’-(ethane-1,2-diyl)bis(1-(1-(3,4-diethoxyphenyl)-8,9-diethoxy-5,6-dihydropyrrolo[2,1-a]isoquinolin-2-yl)methanimine)], in [1], the “% inhibition hBChE” value was “n.i”. Further, the 50% inhibitory concentration (IC50) amounted to 65.1 ± 7.3 µM in data set [2], 401 ± 8 µM in data set [3], 84 ± 1.3 µM in [6] and 290 ± 12 µM in [7]. The inhibition at 10 µM in [4] is 37 ± 2%. In data set [5], at 100 µM the inhibition was 48 ± 3%.
As for `COc1ccc(/N=C/c2c(-c3ccc(Cl)cc3)c3n(c2-c2ccccc2)CCc2cc(OC)c(OC)cc2-3)cc1` [Compound 10, (E)-1-(1-(4-chlorophenyl)-8,9-dimethoxy-3-phenyl-5,6-dihydropyrrolo[2,1-a]isoquinolin-2-yl)-N-(4-methoxyphenyl)methanimine], the “% inhibition hBChE” value in data set [1] is listed as “n.i”. In [3], the IC50 turned out to be 211 ± 9 µM. In data set [4], the inhibition at 10 µM was 35 ± 7%. Further, testing at 100 µM in data set [5] gave an inhibition of 42 ± 5%.
With `COc1cc2c(cc1OC)-c1c(-c3ccc(Cl)cc3)c(C=O)cn1CC2` [Compound 3], the “% inhibition hBChE” value in data set [1] was “n.i”. In addition, the IC50 in data set [2] was 17.6 ± 3.2 µM; in data set [8], 38.6 ± 3.2 µM; in data set [3] it was 22 ± 4 µM; in data set [5], 66 ± 2.2 µM; in data set [6] it was 33 ± 4.5 µM. Besides, the inhibition at 10 µM in data set [4] amounted to 32 ± 3%.
For the compound `COc1cc2c(cc1OC)-c1c(-c3ccc(Cl)cc3)c(C=O)c(-c3ccccc3)n1CC2` [Compound 4], the “% inhibition hBChE” value in data set [1] was “n.i”. Also, the IC50 in data set [2] came out at 163 ± 20 µM; in data set [8], 105 ± 11 µM; in data set [3] it was 252 ± 11 µM; in data set [4], 7.9 ± 0.13 µM; in data set [6], 109 ± 5 µM. For the same compound, the “inhibition mechanism on hAChE” value in data set [4] (Michaelis-Menten / Lineweaver-Burk plots) is “noncompetitive/mixed-type mechanism”. For the same compound, in data set [4] (complete kinetics, human AChE, read-out: inhibition constant (Ki) hAChE), the Ki is 3.58 ± 0.04 µM. For the same compound, 100 µM produced 35 ± 6% inhibition in [5].
For `COc1cccc2c1C(=O)c1c(O)c3c(c(O)c1C2=O)C[C@@](O)(C(=O)CO)C[C@@H]3O[C@H]1C[C@H](N)[C@H](O)[C@H](C)O1` [Doxorubicin, reference compound], the half-inhibitory concentration (IC50) in data set [2] was 0.29 ± 0.021 µM; in data set [8] it was 0.38 ± 0.021 µM; in data set [3], 0.142 ± 0.011 µM; in data set [6], 0.892 ± 0.013 µM; in data set [7], 1.75 ± 0.06 µM.
As to `COc1cc2c(cc1OC)-c1c(-c3ccc(F)cc3)c(C=O)c(-c3ccccc3)n1CC2` [Compound 6], the IC50 in data set [2] came to 91.1 ± 10.9 µM; in data set [3] it was 261 ± 13 µM.
In turn, `CC[C@@]1(O)C(=O)OCc2c1cc1n(c2=O)Cc2cc3ccccc3nc2-1` [Camptothecin, reference compound] gave an IC50 at 72 h in [9] of 0.272 ± 0.01 µM.
Regarding `CCOc1ccc(-c2c(/C=N/CCCN(C)C)cn3c2-c2cc(OCC)c(OCC)cc2CC3)cc1OCC.Cl.Cl` [Compound 16a, (E)-N^1-((1-[3,4-diethoxyphenyl]-8,9-diethoxy-5,6-dihydropyrrolo[2,1-a]isoquinolin-2-yl)methylene)-N^3,N^3-dimethylpropane-1,3-diaminium chloride], the “% inhibition hBChE” value in data set [1] is reported as “n.i”. For the same compound, the IC50 in data set [2] turned out to be 72.8 ± 4.6 µM; in data set [8], 85.1 ± 0.2 µM; in data set [3] it was 60.5 ± 0.7 µM; in data set [6], 63.1 ± 3.1 µM. Further, in data set [4], the inhibition at 10 µM amounted to 32 ± 2%. The compound further showed an inhibition at 100 µM in data set [5] of 48 ± 4%.
As to `COc1cc2c(cc1OC)-c1c(-c3ccc(F)cc3)c(C=O)cn1CC2` [Compound 5], the “% inhibition hBChE” value in [1] is given as “n.i”. In addition, the IC50 turned out to be 17.8 ± 0.4 µM in data set [2], 41.3 ± 2 µM in data set [8], 32.2 ± 0.3 µM in data set [3] and 33.8 ± 1 µM in data set [6]. In [4], the inhibition at 10 µM was determined as 33 ± 4%.
With `CCOc1ccc(-c2c(/C=N/c3ccc(OC)cc3)cn3c2-c2cc(OCC)c(OCC)cc2CC3)cc1OCC` [Compound 7, (E)-1-(1-(3,4-diethoxyphenyl)-8,9-diethoxy-5,6-dihydropyrrolo[2,1-a]isoquinolin-2-yl)-N-(4-methoxyphenyl)methanimine], the “% inhibition hBChE” value in data set [1] is “n.i”. Further, the IC50 in [2] is 132 ± 4 µM; in data set [8] it was 79.5 ± 6.8 µM; in data set [3], 38.5 ± 6.6 µM; in data set [4], 20.2 ± 3.1 µM; in [5], 78 ± 5.1 µM; in data set [6], 34.9 ± 1.8 µM. Also, the IC50 in data set [7] is 171 ± 12 µM.
On to `COc1cc2c(cc1OC)-c1c(-c3ccc(Cl)cc3)c(/C=N/c3ccc(/N=C/c4c(-c5ccc(Cl)cc5)c5n(c4-c4ccccc4)CCc4cc(OC)c(OC)cc4-5)cc3)c(-c3ccccc3)n1CC2` [Compound 15a, (1E,1’E)-N,N’-(1,4-phenylene)bis(1-(1-[4-chlorophenyl]-8,9-dimethoxy-3-phenyl-5,6-dihydropyrrolo[2,1-a]isoquinolin-2-yl)methanimine)-1,4-diaminium dichloride], for which the “% inhibition hBChE” value in data set [1] was “n.i”. The IC50 in data set [2] turned out to be 149 ± 3 µM; in data set [8] it was 120 ± 3.5 µM; in [3] it was 102 ± 5 µM; in [5], 50 ± 6.3 µM; in [6], 93.4 ± 2.6 µM; in data set [7] it was 251 ± 17 µM. The inhibition at 10 µM in [4] was found to be 25 ± 3%.
